The source made the active and inactive calls. No cut-off for these calls is given here.

Series [1] deals with T1, 20S proteasome (Homo sapiens) (UniProt P49721+P20618+P28074+P28062+P28065+P28072+P25786+P25787+P25788+P25789+P28066+P60900+O14818+Q8TAA3+P40306+A5LHX3+P49720+P28070+Q99436). Put plainly: (§1) Inhibition of human erythrocyte-derived 20S constitutive proteasome protein using Suc-LLVY-AMC as substrate preincubated for 15 mins followed by substrate addition and measured after 30 mins by multimode plate reader analysis. Particulars: time 45.0 min.

A further series deals with 20S proteasome. The description is as §1.
In series [2] the target is Angiotensin-converting enzyme 2 (Homo sapiens, UniProt Q9BYF1). As to the kind of experiment: Inhibition of human His-tagged ACE2 (18 to 740 residues) using ACE2 fluorogenic substrate incubated for 60 mins by fluorescence based assay.
Angiotensin-converting enzyme 2, sequence (Q9BYF1 whole entry, the tested form may be a part): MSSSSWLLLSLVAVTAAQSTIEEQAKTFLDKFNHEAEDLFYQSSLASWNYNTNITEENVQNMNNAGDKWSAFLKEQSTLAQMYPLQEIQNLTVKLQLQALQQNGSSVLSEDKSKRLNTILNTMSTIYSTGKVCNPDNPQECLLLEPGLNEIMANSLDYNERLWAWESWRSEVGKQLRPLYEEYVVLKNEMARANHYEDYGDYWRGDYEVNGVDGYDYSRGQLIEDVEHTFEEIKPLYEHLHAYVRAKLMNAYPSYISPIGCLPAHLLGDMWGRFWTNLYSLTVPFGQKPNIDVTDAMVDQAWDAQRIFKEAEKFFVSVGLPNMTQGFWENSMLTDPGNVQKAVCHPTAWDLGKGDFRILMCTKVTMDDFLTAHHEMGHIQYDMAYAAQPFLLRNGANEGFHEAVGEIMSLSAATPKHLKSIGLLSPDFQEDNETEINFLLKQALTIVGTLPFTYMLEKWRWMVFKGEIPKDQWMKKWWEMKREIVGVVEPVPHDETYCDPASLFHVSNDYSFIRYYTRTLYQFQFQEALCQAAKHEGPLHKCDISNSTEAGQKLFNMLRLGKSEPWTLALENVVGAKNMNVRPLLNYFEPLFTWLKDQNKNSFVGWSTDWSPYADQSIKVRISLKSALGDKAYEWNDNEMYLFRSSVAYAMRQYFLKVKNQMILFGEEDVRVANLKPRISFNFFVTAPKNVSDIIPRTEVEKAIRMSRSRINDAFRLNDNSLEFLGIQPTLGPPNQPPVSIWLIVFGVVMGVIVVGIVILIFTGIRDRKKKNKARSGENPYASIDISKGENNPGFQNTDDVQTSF
A further series concerns the target T2, Caspase-2 (Homo sapiens, UniProt P42575).
T2 sequence (P42575 whole entry): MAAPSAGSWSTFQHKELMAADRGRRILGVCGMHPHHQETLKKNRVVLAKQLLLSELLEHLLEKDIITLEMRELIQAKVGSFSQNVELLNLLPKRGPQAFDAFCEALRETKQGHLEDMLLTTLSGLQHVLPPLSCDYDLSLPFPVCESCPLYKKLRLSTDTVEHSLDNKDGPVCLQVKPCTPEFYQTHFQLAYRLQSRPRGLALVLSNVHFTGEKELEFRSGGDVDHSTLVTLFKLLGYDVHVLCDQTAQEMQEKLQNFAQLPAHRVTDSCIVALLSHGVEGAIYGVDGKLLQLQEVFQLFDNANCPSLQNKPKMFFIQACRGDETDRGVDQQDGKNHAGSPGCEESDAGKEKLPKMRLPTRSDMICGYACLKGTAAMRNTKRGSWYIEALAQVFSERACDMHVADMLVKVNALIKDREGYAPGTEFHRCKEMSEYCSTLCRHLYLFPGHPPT
As to the kind of experiment: Inhibition of Caspase-2 (unknown origin) by fluorometric assay.

A further series concerns NCI-H929. As to the kind of experiment: Antiproliferative activity against human NCI-H929 cells assessed as reduction in cell viability incubated for 72 hrs by CellTiter 96 non-radioactive cell proliferation assay. It counts as functional, cell-based.
The target in another series is Cathepsin B (Homo sapiens, UniProt P07858). Put plainly: Inhibition of human Cathepsin B using Ac-RR-AFC as substrate preincubated for 10 to 15 mins followed by substrate addition and measured for 30 to 60 mins by fluorescence based assay.
Another series addresses Procathepsin L (Homo sapiens, UniProt P07711). Put plainly: Inhibition of Cathepsin L (unknown origin) using AFC based peptide as substrate by fluorometric assay.
Series [3] can be described thus: Cytotoxicity against HEK293T cells assessed as reduction in cell viability incubated for 72 hrs by CellTiter 96 non-radioactive cell proliferation assay. The settings on record: human. It counts as toxicity, cell-based, HEK-293T.
In series [4] the target is T1, 20S proteasome (Homo sapiens). As to the kind of experiment: Inhibition of human erythrocyte-derived 20S constitutive proteasome protein at 100 uM using Suc-LLVY-AMC as substrate preincubated for 15 mins followed by substrate addition and measured after 30 mins by multimode plate reader analysis relative to control. Particulars: time 45.0 min.
For series [5] the target is unchanged. Put plainly: Inhibition of human 20S immunoproteasome protein at 100 uM using Suc-LLVY-AMC as substrate preincubated for 15 mins followed by substrate addition and measured after 30 mins by multimode plate reader analysis relative to control. The format is protein-complex assay. Particulars: time 45.0 min.

Procathepsin L, sequence (P07711 whole entry): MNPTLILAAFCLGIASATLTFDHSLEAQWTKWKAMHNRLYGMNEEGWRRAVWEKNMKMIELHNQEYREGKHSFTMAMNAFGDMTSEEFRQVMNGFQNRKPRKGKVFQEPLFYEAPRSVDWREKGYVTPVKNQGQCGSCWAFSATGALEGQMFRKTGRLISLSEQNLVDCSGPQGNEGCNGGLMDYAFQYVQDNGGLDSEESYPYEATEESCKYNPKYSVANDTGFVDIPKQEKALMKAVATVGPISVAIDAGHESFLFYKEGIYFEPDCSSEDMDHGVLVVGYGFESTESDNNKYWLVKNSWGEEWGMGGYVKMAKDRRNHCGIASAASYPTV

For the compound `O=C(Nc1ccc2c(c1)OCCO2)C(=O)c1cn(Cc2ccc(Cl)cc2)c2ccccc12`, the inhibition (as a rule, how much of the control response was suppressed) in series [1] was “inactive”.

Turning to `CC[C@@H](C)NC(=O)C(=O)c1cn(CC(=O)N2CCOCC2)c2ccccc12`, the IC50 – broadly, the concentration that gives 50% inhibition – against 20S proteasome is 69.2 µM.

For the compound `Cc1ccc(NC(=O)C(=O)c2cn(CC(=O)N3CCOCC3)c3ccccc23)c(C)c1`, in series [1], the inhibition entry is “inactive”.

For `O=C(Nc1ccccc1-c1ccccc1)C(=O)c1cn(CC(=O)N2CCOCC2)c2ccccc12`, the inhibition result in [1] was “inactive”.

Take `CC(=O)Nc1ccc(NC(=O)C(=O)c2cn(CC(=O)N3CCOCC3)c3ccccc23)cc1`: the inhibition entry in series [1] is “inactive”.

With `COc1ccc(NC(=O)C(=O)c2cn(CC(=O)N3CCCCC3)c3ccccc23)cc1OC`, the IC50 in series [2] is more than 100 µM; against Caspase-2 it was more than 100 µM; against Cathepsin B, more than 100 µM; at Procathepsin L, more than 100 µM; at 20S proteasome it was 18.5 µM. Besides, the Activity result in the series with NCI-H929 was “Dose-Dependent Effect”. Further, in series [3], the CC50 (usually the concentration at which the toxic effect on the cells reaches its halfway point) at 72 h was more than 200 µM.

For `COc1cc(NC(=O)C(=O)c2ccn(Cc3ccccc3)c2)cc(OC)c1`, the inhibition result in series [1] is “inactive”.

The compound `O=C(NCc1ccccc1)C(=O)c1cn(CC(=O)N2CCOCC2)c2ccccc12` displayed an inhibition in series [4] of 26%.

On to `O=C(Nc1ccc2c(c1)OCCO2)C(=O)c1cn(CC(=O)N2CCOCC2)c2ccccc12`, for which, on 20S proteasome, the IC50 worked out at 40.8 µM.

As to `CCN(CC)C(=O)Cn1cc(C(=O)C(=O)Nc2ccc3c(c2)OCCO3)c2ccccc21`, the IC50 in series [2] is more than 100 µM; against Caspase-2, more than 100 µM; at Cathepsin B, more than 100 µM; at Procathepsin L, more than 100 µM; at 20S proteasome, 12.4 µM. In addition, in the series on NCI-H929, the Activity entry is “Dose-Dependent Effect”. Besides, in series [3], the CC50 at 72 h was more than 200 µM.

With `COc1ccc(NC(=O)C(=O)c2cn(CC(=O)N3CCOCC3)c3ccccc23)cc1OC`, the inhibition is 50% in [4], 50% in series [5] and “Dose-Dependent Effect” in [1]. In addition, at 20S proteasome, the IC50 amounted to 107 µM.

`O=C(Nc1ccccc1)C(=O)c1cn(CC(=O)N2CCOCC2)c2ccccc12` showed an inhibition in series [4] of 55%.

On 20S proteasome, `CC(=O)c1cccc(NC(=O)C(=O)c2cn(CC(=O)N3CCOCC3)c3ccccc23)c1` returned an IC50 of 31.3 µM.

Values taken from ChEMBL document CHEMBL6127112, “Discovery of Novel Nonpeptidic Proteasome Inhibitors Using Covalent Virtual Screening and Biological Evaluation” (ACS Med Chem Lett, 2024).
